Measurements reported in patent US6699902B2, “Acetyloxymethyl esters and methods for using the same” (Beacon Laboratories, Inc., priority 2000, dated 2004).

What follows are compounds tested on PC-3 prostate breast cancer cells (assay: EDR assay, anti-proliferation against PC-3 cells (3H-thymidine incorporation in soft agar)). Settings: Homo sapiens, PC3 cell line, five days incubation, 3H-TdR incorporation.
Assay type: cell-based
Experimental: Compounds prepared according to Examples 1-7 were tested for anti-proliferation against PC-3 prostate […] cancer cells. Butyric acid and trichostatin, a potent HDAC inhibitor, were used as reference compounds. Both compounds were purchased from Sigma-Aldrich, Milwaukee, Wis.
The PC3 cell line was maintained in RPMI supplemented with 10% fetal calf serum and antibiotics. The EDR assay was performed as described by Kern and Weisenthal in “Highly Specific Prediction of Antineoplastic Drug Resistance With An In Vitro Assay Using Suprapharmacologic Drug Exposures,” J. Nat. Cancer Inst., 82:582-588 (1990); and Fruehauf and Bosanquet, “In vitro Determination of Drug Response: A Discussion of Clinical Applications,” PPO Updates 7(12):1-16 (1993). Cells were suspended in 0.12% soft agar in complete medium and plated (2,000 cells per well, as determined by preliminary experiments) in different drug concentrations onto a 0.4% agarose underlayer in 24-well plates. Plating cells on agarose underlayers supports the proliferation only of the transformed cells, ensuring that the growth signal stems from the malignant component of the tumor.
All compounds were dissolved in DMSO to 200× stock solutions. Stock solutions were diluted to 20× working solutions using the tissue culture medium, serially diluted and added to the 24-well plates. The concentration range was 0.001 μM to 0.3 μM for trichostatin and 10 μM-1,000 μM for the other compounds. No significant changes in pH of the culture medium were observed under the above conditions. Diluent control wells contained PC3 cells treated with DMSO, at the dilutions used for appropriate drug treatment. All experimental points were represented by two separate wells (duplicates). Positive controls were determined using at least two wells treated with an extremely high dose of cisplatin, an anti-cancer agent. Four wells containing tumor cells that were not treated with drugs served as negative controls in each experiment.
Cells were incubated with drugs under standard culture conditions for five days. Cultures were pulsed with tritiated thymidine (^3H-TdR, New Life Science Products, Boston, Mass.) at 5 μCi per well for the last 48 hours of the culture period. Cell culture plates were then heated to 90° C. to liquefy the agarose, and cells were harvested onto glass fiber filters, which were then placed into counting vials containing liquid scintillation fluid. The radioactivity trapped on the filters was counted with a Beckman scintillation counter. The fraction of surviving cells was determined by comparing ^3H-TdR incorporation in treated (experimental points) and untreated (negative control) wells. All drug concentrations are presented as μM, allowing for normalization of drug response curves and direct comparison of the effects of the drugs. Microsoft Excel was used to organize the raw data on EDR experiments, and the SigmaPlot program was utilized to generate drug response curves. All drug response curves were as approximated as sigmoidal equations (characteristic for typical drug response curves) to fit the data. IC50 values were determined using the approximated sigmoidal curves and expressed as μM.

SMILES | IC50
CC(=O)OCOC(=O)C=CSc1ccccc1 [3-(phenylthio)acryloyloxymethyl acetate] | 30 µM
CC(=O)OCOC(=O)C=CC=Cc1ccccc1 [5-phenyl-2,4-pentadienoyloxymethyl acetate] | 20 µM
CC(=O)OCOC(=O)CC=CC=Cc1ccccc1 [6-phenyl-3,5-hexadienoyloxymethyl acetate] | 18 µM
CC(=O)OCOC(=O)C=Cc1ccccc1 [cinnamoyloxymethyl acetate] | 12.5 µM
CC(=O)OCOC(=O)C#Cc1ccccc1 [phenylpropioloyloxymethyl acetate] | 25 µM
CC(/C=C/C(=O)NO)=C\[C@@H](C)C(=O)c1ccc(N(C)C)cc1 [trichostatin, reference compound] | 0.005 µM

The next lines start with the values.

IC50 | SMILES
23.2 µM | CC(=O)OCOC(=O)CCCC1CCCCC1 [4-cyclohexanebutyroyloxymethyl acetate]
28.4 µM | CC(=O)OCOC(=O)CSCc1ccccc1 [S-benzylthioglycoloyloxymethyl acetate]
> 2000 µM | CCCC(=O)O [butyric acid, reference compound]
